Assay results as given in paper PMC9395488, “First-in-human study of IM156, a novel potent biguanide oxidative phosphorylation (OXPHOS) inhibitor, in patients with advanced solid tumors” (Investigational New Drugs, 2022).

System: patients with advanced solid tumors
Assay: First-in-human phase 1 dose-escalation study: safety, DLTs, adverse events
Type: in vivo
Excerpt: This multicenter first-in-human dose-escalation phase 1 study (clinicaltrials.gov identifier: NCT03272256) was designed to determine the MTD or RP2D and to evaluate the safety and tolerability of IM156. Secondary endpoints included PK characteristics, efficacy assessment (objective response rate [ORR], disease control rate [DCR], duration of response [DoR] and progression-free survival [PFS]). Furthermore, exploratory objectives included identification and profiling of IM156 metabolites, evaluations of exploratory PD markers of IM156, and evaluations of any potential relationship between putative biomarkers and safety/efficacy parameters of IM156. The study was conducted in accordance with Good Clinical Practice, the International Council for Harmonisation, and guidelines governing clinical study conduct and the ethical principles originating from the Declaration of Helsinki. The study was approved by each Institutional Review Board and patients provided written informed consent. Patients were enrolled at three sites in South Korea.
The initial dose and schedule of IM156 was chosen based on animal toxicology studies. […] IM156 was administered in the fasted state, with no food for at least 2 h before and 1 h after dosing.
Three DLT-evaluable patients were enrolled at each dose level. If there were no DLTs or other prohibitive adverse events (AEs), the Safety Committee was allowed to recommend escalation to the next highest dose level. If 1 DLT occurred in the first 3 DLT-evaluable patients, enrollment in that cohort was expanded to an additional 3 DLT-evaluable patients; if ≥ 2 DLTs were reported in a cohort, that dose was considered above the MTD.
Safety was assessed through vital signs, weight, laboratory assessments, physical examinations, electrocardiogram, and reporting of AEs as graded by the National Cancer Institute’s Common Terminology Criteria for Adverse Events v4.03 (NCI-CTCAE).
DLTs were defined as the following AEs if they were attributed as related to IM156: asymptomatic grade 4 neutropenia lasting for ≥ 5 days; febrile neutropenia, regardless of grade; grade 4 thrombocytopenia or grade 3 thrombocytopenia with bleeding; any grade ≥ 3 non-hematologic AE (except grade 3 hypertension and grade 3 nausea, vomiting or diarrhea for which proper measures for prevention and treatment were not implemented, and alopecia); blood lactate levels > 5 mmol; grade ≥ 2 AE prohibiting dosing of IM156 for ≥ 21 continuous days except for alterations in serum calcium or phosphorus levels. The safety analysis includes all patients who received at least one dose of study drug.
The safety population was defined as all patients who received at least one dose of IM156. The PK population was not defined in the protocol but included all patients with sufficient PK data to perform adequate PK modeling. The efficacy population included all patients who underwent at least one tumor imaging assessment while receiving IM156. Safety was assessed using descriptive statistics (e.g., DLTs, AEs, laboratory tests, physical examination, 12-lead ECG). The incidence and number of events were reported for the DLTs observed in Cycle 1 per dose group. […] Adverse events and TRAEs were standardized with the System Organ Class and the Preferred Term using the Medical Dictionary for Regulatory Activities v23.0. In addition, TEAEs, serious adverse events (SAEs), TEAE severity, and TEAEs leading to withdrawal were presented by dose group. Efficacy data were to be presented by Waterfall and Swim Lane plots. Time to event endpoints (e.g., DoR, PFS) were determined using Kaplan–Meier estimations with the median value for each endpoint summarized.

[1] = all dose level/grade cells not in own entries

## NC(=Nc1ccc(OC(F)(F)F)cc1)N=C(N)N1CCCC1 [IM156]
DL7 1200 mg orally daily (n=4)
  TEAE Purpura grade 2: 0
  TEAE Purpura grade 3: 0
  TEAE Purpura grade 4: 0
  TEAE Urinary retention grade 1: 0
  TEAE Urinary retention grade 2: 0
  TEAE Urinary retention grade 3: 0
  TEAE Urinary retention grade 4: 0
  TEAE Urinary tract disorder grade 1: 0
  TEAE Urinary tract disorder grade 2: 1
  TEAE Urinary tract disorder grade 3: 0
  TEAE Urinary tract disorder grade 4: 0
Total
  TEAE Adrenal insufficiency grade 1: 0
  TEAE Adrenal insufficiency grade 2: 1
  TEAE Adrenal insufficiency grade 3: 0
  TEAE Adrenal insufficiency grade 4: 0
  TEAE Anaemia grade 1: 0
  TEAE Anaemia grade 2: 3
  TEAE Anaemia grade 3: 2
  TEAE Anaemia grade 4: 0
  TEAE Appendicitis perforated grade 1: 0
  TEAE Appendicitis perforated grade 2: 0
  TEAE Appendicitis perforated grade 3: 1
  TEAE Appendicitis perforated grade 4: 0
  TEAE Back pain grade 1: 0
  TEAE Back pain grade 2: 2
  TEAE Back pain grade 3: 0
  TEAE Back pain grade 4: 0
  TEAE Cystitis grade 1: 0
  TEAE Cystitis grade 2: 1
  TEAE Cystitis grade 3: 0
  TEAE Cystitis grade 4: 0
  TEAE Dry skin grade 1: 0
  TEAE Dry skin grade 2: 1
  TEAE Dry skin grade 3: 0
  TEAE Dry skin grade 4: 0
  TEAE Flank pain grade 1: 0
  TEAE Flank pain grade 2: 1
  TEAE Flank pain grade 3: 0
  TEAE Flank pain grade 4: 0
  TEAE Hypertension grade 1: 0
  TEAE Hypertension grade 2: 1
  TEAE Hypertension grade 3: 0
  TEAE Hypertension grade 4: 0
  TEAE Hypotension grade 1: 0
  TEAE Hypotension grade 2: 1
  TEAE Hypotension grade 3: 0
  TEAE Hypotension grade 4: 0
  TEAE Insomnia grade 1: 2
  TEAE Insomnia grade 2: 1
  TEAE Insomnia grade 3: 0
  TEAE Insomnia grade 4: 0
  TEAE Pain in extremity grade 1: 1
  TEAE Pain in extremity grade 2: 1
  TEAE Pain in extremity grade 3: 0
  TEAE Pain in extremity grade 4: 0
  TEAE Pruritus grade 1: 1
  TEAE Pruritus grade 2: 0
  TEAE Pruritus grade 3: 0
  TEAE Pruritus grade 4: 0
  TEAE Psychiatric disorders grade 1: 2
  TEAE Psychiatric disorders grade 2: 1
  TEAE Psychiatric disorders grade 3: 0
  TEAE Psychiatric disorders grade 4: 0
  TEAE Purpura grade 1: 1
  TEAE Purpura grade 2: 0
  TEAE Purpura grade 3: 0
  TEAE Purpura grade 4: 0
  TEAE Urinary retention grade 1: 0
  TEAE Urinary retention grade 2: 1
  TEAE Urinary retention grade 3: 0
  TEAE Urinary retention grade 4: 0
  TEAE Urinary tract disorder grade 1: 0
  TEAE Urinary tract disorder grade 2: 1
  TEAE Urinary tract disorder grade 3: 0
  TEAE Urinary tract disorder grade 4: 0
Total, N = 22
  TRAE Abdominal Pain, > G3 (patients): 0
  TRAE Abdominal Pain, All grades (patients): 2
  TRAE Blood Lactic Acid increased, > G3 (patients): 0
  TRAE Blood Lactic Acid increased, All grades (patients): 2
  TRAE Constipation, > G3 (patients): 0
  TRAE Constipation, All grades (patients): 2
  TRAE Decreased appetite, > G3 (patients): 0
  TRAE Diarrhoea, > G3 (patients): 0
  TRAE Diarrhoea, All grades (patients): 10
  TRAE Fatigue, > G3 (patients): 0
  TRAE Fatigue, All grades (patients): 4
  TRAE Insomnia, > G3 (patients): 0
  TRAE Insomnia, All grades (patients): 2
  TRAE Nausea, > G3 (patients): 3
  TRAE Nausea, All grades (patients): 15
  TRAE Vomiting, > G3 (patients): 0
  TRAE Vomiting, All grades (patients): 9
Total, all dose levels
  TEAE Abdominal discomfort, grade 1: 1
  TEAE Abdominal distension, grade 2: 1
  TEAE Abdominal pain upper, grade 2: 1
  TEAE Abdominal pain, grade 1: 2
  TEAE Abdominal pain, grade 2: 3
  TEAE Abdominal pain, grade 3: 1
  TEAE Akathisia, grade 2: 1
  TEAE Alanine aminotransferase increased, grade 1: 3
  TEAE Alanine aminotransferase increased, grade 3: 1
  TEAE Ascites, grade 1: 1
  TEAE Aspartate aminotransferase increased, grade 1: 2
  TEAE Aspartate aminotransferase increased, grade 2: 1
  TEAE Aspartate aminotransferase increased, grade 3: 1
  TEAE Asthenia, grade 1: 3
  TEAE Blood alkaline phosphatase increased, grade 2: 1
  TEAE Blood alkaline phosphatase increased, grade 3: 1
  TEAE Blood creatinine increased, grade 1: 3
  TEAE Blood lactic acid increased, grade 1: 2
  TEAE Chest pain, grade 1: 1
  TEAE Constipation, grade 1: 5
  TEAE Constipation, grade 2: 1
  TEAE Cough, grade 1: 3
  TEAE Decreased appetite, grade 1: 3
  TEAE Decreased appetite, grade 2: 1
  TEAE Diarrhoea, grade 1: 9
  TEAE Diarrhoea, grade 2: 3
  TEAE Dysesthesia, grade 1: 1
  TEAE Fatigue, grade 1: 2
  TEAE Fatigue, grade 2: 4
  TEAE Gamma-glutamyltransferase increased, grade 2: 1
  TEAE Gamma-glutamyltransferase increased, grade 3: 1
  TEAE Gastritis, grade 1: 1
  TEAE Gastrointestinal pain, grade 1: 1
  TEAE Gastrointestinal pain, grade 2: 1
  TEAE Headache, grade 1: 1
  TEAE Headache, grade 2: 1
  TEAE Hemoptysis, grade 2: 1
  TEAE Hyperkalaemia, grade 3: 1
  TEAE Hypoalbuminaemia, grade 2: 2
  TEAE Hypocalcemia, grade 2: 1
  TEAE Ileus, grade 2: 1
  TEAE Ileus, grade 3: 1
  TEAE Influenza like illness, grade 1: 1
  TEAE Large intestinal obstruction, grade 2: 1
  TEAE Lethargy, grade 2: 1
  TEAE Nausea, grade 1: 8
  TEAE Nausea, grade 2: 5
  TEAE Nausea, grade 3: 3
  TEAE Neutrophil count decreased, grade 4: 1
  TEAE Obstruction gastric, grade 3: 1
  TEAE Oedema peripheral, grade 2: 1
  TEAE Oropharyngeal pain, grade 1: 1
  TEAE Pain, grade 2: 1
  TEAE Peripheral sensory neuropathy, grade 1: 1
  TEAE Platelet count decreased, grade 1: 1
  TEAE Pleural effusion, grade 2: 1
  TEAE Proctalgia, grade 2: 1
  TEAE Pyrexia, grade 1: 5
  TEAE Pyrexia, grade 2: 1
  TEAE Toothache, grade 1: 1
  TEAE Vomiting, grade 1: 10
  TEAE Vomiting, grade 2: 1
[1]
  TEAE Abdominal discomfort, dose level/grade cells without event: 0
  TEAE Abdominal distension, dose level/grade cells without event: 0
  TEAE Abdominal pain upper, dose level/grade cells without event: 0
  TEAE Abdominal pain, dose level/grade cells without event: 0
  TEAE Akathisia, dose level/grade cells without event: 0
  TEAE Alanine aminotransferase increased, dose level/grade cells without event: 0
  TEAE Ascites, dose level/grade cells without event: 0
  TEAE Aspartate aminotransferase increased, dose level/grade cells without event: 0
  TEAE Asthenia, dose level/grade cells without event: 0
  TEAE Blood alkaline phosphatase increased, dose level/grade cells without event: 0
  TEAE Blood creatinine increased, dose level/grade cells without event: 0
  TEAE Blood lactic acid increased, dose level/grade cells without event: 0
  TEAE Chest pain, dose level/grade cells without event: 0
  TEAE Constipation, dose level/grade cells without event: 0
  TEAE Cough, dose level/grade cells without event: 0
  TEAE Decreased appetite, dose level/grade cells without event: 0
  TEAE Diarrhoea, dose level/grade cells without event: 0
  TEAE Dysesthesia, dose level/grade cells without event: 0
  TEAE Fatigue, dose level/grade cells without event: 0
  TEAE Gamma-glutamyltransferase increased, dose level/grade cells without event: 0
  TEAE Gastritis, dose level/grade cells without event: 0
  TEAE Gastrointestinal pain, dose level/grade cells without event: 0
  TEAE Headache, dose level/grade cells without event: 0
  TEAE Hemoptysis, dose level/grade cells without event: 0
  TEAE Hyperkalaemia, dose level/grade cells without event: 0
  TEAE Hypoalbuminaemia, dose level/grade cells without event: 0
  TEAE Hypocalcemia, dose level/grade cells without event: 0
  TEAE Ileus, dose level/grade cells without event: 0
  TEAE Influenza like illness, dose level/grade cells without event: 0
  TEAE Large intestinal obstruction, dose level/grade cells without event: 0
  TEAE Lethargy, dose level/grade cells without event: 0
  TEAE Nausea, dose level/grade cells without event: 0
  TEAE Neutrophil count decreased, dose level/grade cells without event: 0
  TEAE Obstruction gastric, dose level/grade cells without event: 0
  TEAE Oedema peripheral, dose level/grade cells without event: 0
  TEAE Oropharyngeal pain, dose level/grade cells without event: 0
  TEAE Pain, dose level/grade cells without event: 0
  TEAE Peripheral sensory neuropathy, dose level/grade cells without event: 0
  TEAE Platelet count decreased, dose level/grade cells without event: 0
  TEAE Pleural effusion, dose level/grade cells without event: 0
  TEAE Proctalgia, dose level/grade cells without event: 0
  TEAE Pyrexia, dose level/grade cells without event: 0
  TEAE Toothache, dose level/grade cells without event: 0
  TEAE Vomiting, dose level/grade cells without event: 0
All doses
  days of interruption due to a TEAE, range: 2 to 11 days
  median number of days of interruption due to a TEAE: 3 days
  number of SAEs reported: Nine
  number of laboratory AEs: 28
All doses, N = 22
  Grade 3 nausea (TRAE), percent of patients: 14%
  TRAE abdominal pain, percent of patients: 9%
  TRAE constipation, percent of patients: 9%
  TRAE diarrhea, percent of patients: 46%
  TRAE emesis (vomiting), percent of patients: 41%
  TRAE fatigue, percent of patients: 18%
  TRAE nausea, percent of patients: 68%
  TRAEs grade 3 or higher, percent of patients: 14%
  patients in whom nausea and emesis required anti-emetic medications: 14 patients
  patients in whom nausea and emesis required anti-emetic medications, percent: 64%
  patients with SAEs: 8 patients
  patients with TRAEs: 19 patients
  patients with TRAEs, percent: 86%
  patients with a TEAE leading to dose interruption: 7 patients
  patients with a TEAE leading to dose interruption, percent: 32%
  patients with at least one TEAE: 22 patients
  patients with at least one TEAE, percent: 100%
  patients with gastrointestinal (GI) TRAEs: 18 patients
  patients with gastrointestinal (GI) TRAEs, percent: 82%
  total number of TEAEs reported: 146
All doses, N = 22, Grade 1
  TRAE blood lactate (lactic acid) increased, percent of patients: 9%
Dose level 1, 100 mg QOD oral, 3 patients
  Dose-limiting toxicity: 0
Dose level 2, 200 mg QOD oral, 3 patients
  Dose-limiting toxicity: 0
Dose level 3, 400 mg QOD oral, 3 patients
  Dose-limiting toxicity: 0
Dose level 4, 800 mg QOD oral, 3 patients
  Dose-limiting toxicity: 0
Dose level 5, 1,200 mg QOD oral, 3 patients
  Dose-limiting toxicity: 0
Dose level 6, 800 mg QD oral, 3 patients
  Dose-limiting toxicity: 0
Dose level 7, 1,200 mg QD oral, 4 patients
  Dose-limiting toxicity: 0
Grade 3 nausea at 1,200 mg QOD
  SAEs attributed to IM156: 1
Of 28 laboratory AEs
  laboratory AEs considered not related to IM156: 26
  laboratory AEs considered not related to IM156, percent: 93%
oral, QD
  recommended phase 2 dose (RP2D): 800 mg
Per protocol, 100 to 1,200 mg QOD or QD
  maximum tolerated dose (MTD): not reached
